Here are results for four compounds from patent US11083701B2, “Dermatomycosis treatment agent” (priority 2015, dated 2021).

For test [1], the system named is T. mentagrophytes, IFM59813. Put plainly: Drug-sensitivity test, microdilution method, CLSI guidelines. The test is classed as cell-based, Trichophyton mentagrophytes. On the procedure: (§1) The antimicrobial activity of therapeutic agents for treating dermatomycosis was evaluated and confirmed by performing a drug-sensitivity test with major pathogenic fungi in accordance with the CLSI (Clinical Laboratory Standards Institute, U.S.) guidelines. The pathogenic fungi selected were genus Trichophyton (T. rubrum, T. mentagrophytes), genus Microsporum (M. gypseum), genus Epidermophyton (E. floccosum), genus Candida (C. albicans), genus Aspergillus (A. fumigatus), and genus Cryptococcus (C. neoformans). The Examples show the test results. The antimicrobial activity of the compounds of the present invention (MIC, mg/ml) against T. mentagrophytes, which is a typical dermatophytic fungus, is as follows: tripotassium citrate 3.1; and trisodium citrate 6.3. A drug-sensitivity test with a fungus belonging to genus Malassezia (M. furfur) was also performed in accordance with the method of Sugita et al., which employs an agar dilution method (T. Sugita et al., J. Clinical Microbiology, 43, 2824-2829 (2005)). The antimicrobial activity against M. furfur (MIC, mg/ml) was as follows: tripotassium citrate 10.0.
In these drug-sensitivity tests, the medium contained Mg ions and Ca ions necessary for fungal conidia (spores) to germinate and grow. Because carboxyl groups of organic acids bind to these ions, organic acids have competitive inhibitory activity on fungal growth.
In the antimicrobial activity measurement method in accordance with the CLSI guidelines described above, an excessively large amount of magnesium ions and calcium ions is added to the RPMI-1640 medium for use. Thus, the trialkali metal salt of citric acid added to the test system binds completely to the excessively large amount of metal ions, resulting in an apparently large MIC value. For this reason, the ICP analytical method was performed to measure the content of magnesium ions and calcium ions in a test solution used as a blank test in this test system (a solution obtained by adding a solution containing spores of T. mentagrophytes to a RPMI-1640 medium solution, and performing a culture treatment) and to measure the content of magnesium ions and calcium ions in the original RPMI-1640 medium solution, thereby calculating the amount of alkali metal ions absorbed by the spores of T. mentagrophytes. The amount of the citric salt that can bind to all of the alkali metal ions absorbed by the spores is the substantial MIC value.
The antifungal activity of tripotassium citrate and trisodium citrate against a variety of pathogenic fungi was evaluated by performing a drug-sensitivity test. The test was performed using a microdilution method in accordance with the CLSI (Clinical Laboratory Standards Institute, U.S.) guidelines. […]
On the technique in general: In broth dilution the organism is exposed to a series of concentrations in liquid medium.

The next test concerns Aspergillus oryzae. Conditions: Non-patent Literature 3; cited from earlier work.
Another test has as its system Candida krusei. Particulars: Non-patent Literature 3; cited from earlier work.
Test [2] deals with thin hyperkeratotic tinea (Trichophyton rubrum isolated). Put plainly: Human case, Example 6: external treatment of thin hyperkeratotic tinea. The format is in vivo. Particulars: 3% test solution, sprayed once daily, after about 1 month. The protocol: (§2) The curative action of trialkali metal salts of citric acid on dermatomycosis was determined based on whether there was a therapeutic effect on human tinea. The cases of tinea used in the test include a variety of cases, such as vesicular tinea on the skin, interdigital tinea, hyperkeratotic tinea, tinea corporis, and tinea unguium. […] In these cases, no skin irritation due to the medicinal agents was confirmed. In many cases described in the Examples, Trichophyton fungus was isolated and identified as a pathogenic fungus; additionally, Example 10 describes a case in which Candida was isolated and identified, and Example 11 describes a case in which Aspergillus was isolated and identified.
A 3% test solution prepared in the same manner as in Example 4 was sprayed once daily onto thin hyperkeratotic tinea that extensively developed over around the tip of the nails on the sole of both feet. […] From this affected area of the skin, Trichophyton rubrum was isolated and confirmed.

Test [3] deals with tinea unguium (Clavispora lusitaniae isolated). Put plainly: Human case, Example 10: external treatment of tinea unguium. Conditions: 5% solution, sprayed once daily, after one and a half months. The test is classed as in vivo. On the procedure:
as §2
A 5% solution of tripotassium citrate prepared in the same manner as in Example 9 was sufficiently sprayed once daily on tinea unguium on the tip of the nail of the fourth finger of the right hand. […] From the nail specimen of this affected area, a Candida fungus was isolated and confirmed to be Clavispora lusitaniae (the teleomorph of Candida lusitaniae) by gene analysis.

The test system of a further test is A. fumigatus, IFM4942. Briefly: Drug-sensitivity test, microdilution method, CLSI guidelines. The test is classed as cell-based, Aspergillus fumigatus. On the procedure:
as §1, with “10.0. […]” for “10.0.”
(§3) The antifungal activity of tripotassium citrate and trisodium citrate against a variety of pathogenic fungi was evaluated by performing a drug-sensitivity test. […]

A further test relates to E. floccosum, IFM53345. The description is as above. The format is cell-based, Epidermophyton floccosum. On the procedure: as §1, with “10.0. […]” for “10.0.”
as §3

For the next test, the system named is human tinea. Briefly: Curative action on human tinea, overall (Examples 3 to 13). Conditions: 5% solution applied; relapse of symptoms and pigmentation before the end result. The test is classed as in vivo. On the procedure:
as §2
Applying a 5% tripotassium citrate solution on the small red papules on the body made the papules smooth, and relapse of symptoms was observed after every day, with development of pigmentation, and followed by complete cure; this phenomenon was observed quite frequently. The relapse of symptoms was caused by germination of spores, and tripotassium citrate appears to have induced the germination of spores. The biggest factor for the low likelihood of curing dermatomycosis is the presence of spores; even after a treatment with a medicinal agent, if spores remain, the spores germinate, enabling dermatomycosis to return. […]

For another test, the system named is interdigital tinea. Briefly: Human case, Example 7: external treatment of interdigital tinea. The format is in vivo. Conditions: 3% test solution, sprayed once daily, after about 2 months. On the procedure:
as §2
A 3% test solution prepared in the same manner as in Example 4 was sprayed once daily onto interdigital tinea that extensively developed between the toes of the feet.

The subject of another test is T. rubrum, IFM59814. Briefly: Drug-sensitivity test, microdilution method, CLSI guidelines. The format is cell-based, Trichophyton rubrum. The protocol:
as §1, with “10.0. […]” for “10.0.”
as §3

Test [4] concerns tinea of nail and surrounding skin (Trichophyton rubrum isolated). Briefly: Human case, Example 9: immersion treatment of fingernail tinea. The test is classed as in vivo. Particulars: 5% test solution, finger immersed 5 hours once every 2 days, after 3 months. The protocol: as §2
20 mL of glycerin (84-87% aqueous solution) was added to 106 g of tripotassium citrate monohydrate, and 15% ethanol was further added thereto to give 2 L, thereby preparing a 5% test solution. About 2 mL of this test solution was placed into a commercially available fingerstall (size M). The middle finger of the right hand, which developed tinea on the right edge of the nail and the surrounding skin from the tip to the base of the nail, was immersed in the solution for 5 hours once every 2 days. […] From the nail specimen of this case, a Trichophyton fungus was isolated, and confirmed to be Trichophyton rubrum by gene analysis.

In the next test the test system is C. neoformans, IFM5807. Briefly: Drug-sensitivity test, microdilution method, CLSI guidelines. The test is classed as cell-based, Cryptococcus neoformans. On the procedure:
as §1, with “10.0. […]” for “10.0.”
as §3

A further test relates to vesicular tinea. Put plainly: Human case, Example 4: external treatment of vesicular tinea. The test is classed as in vivo. Conditions: 3% test solution, sprayed twice daily; symptom practically disappeared after about 1 month, treatment continued about 1 month more. On the procedure:
as §2
20 mL of glycerin (84-87% aqueous solution) was added to 63.6 g of tripotassium citrate monohydrate, and 15% ethanol was further added thereto to give 2 L, thereby preparing a 3% test solution. This 3% test solution was applied twice daily, by spraying the solution, to vesicular tinea that extensively developed on the arch of the left foot. After about 1 month, the skin symptom practically disappeared.

The subject of another test is tinea corporis. Briefly: Human case, Example 5: external treatment of tinea corporis. The format is in vivo. Conditions: 3% test solution, sprayed twice daily, after about 2 months. The protocol: as §2
A 3% test solution of tripotassium citrate prepared in the same manner as in Example 4 was sprayed twice daily onto tinea corporis that extensively developed over the left part of the buttocks. […] Although light brown pigmentation developed on the healed skin, it faded away over time and became less prominent.

The subject of another test is tinea unguium. Briefly: Human case, Example 12: external treatment of tinea unguium. Conditions: 10% aqueous solution, sprayed once daily, after a half year. The format is in vivo. The protocol:
as §2
A 10% aqueous solution of tripotassium citrate was prepared. This 10% test solution was sprayed once daily on the right thumbnail, the entirety of which had developed tinea unguium.

For another test, the system named is M. furfur. Put plainly: Malassezia drug-sensitivity test, method of Sugita et al. (agar dilution). The test is classed as cell-based. Particulars: mLNA medium, 32° C., 7 days. The protocol:
as §1
The antimicrobial activity of tripotassium citrate against fungi belonging to genus Malassezia was evaluated by performing a drug-sensitivity test with human-related Malassezia species, in accordance with the method disclosed in Sugita et al. (2005). […]

In test [5] the test system is hyperkeratotic tinea (Trichophyton mentagrophytes isolated). Put plainly: Human case, Example 3: external treatment of hyperkeratotic tinea. The test is classed as in vivo. Conditions: 0.5% test solution in 20% ethanol, sprayed three times daily, after about 3 months. On the procedure: as §2
20% ethanol was added to 5.3 g of tripotassium citrate monohydrate to give 1000 g, thereby preparing a 0.5% test solution. The 0.5% test solution was applied to hyperkeratotic tinea that extensively developed on the arch on the sole of a foot by spraying the solution three times daily. […] From the area affected by this tinea, Trichophyton mentagrophytes, which is one type of Trichophyton fungi, was isolated and confirmed.

Test [6] relates to small red papules (Aspergillus tubingensis as the pathogen). Briefly: Human case, Example 11: external treatment of small red papules. The format is in vivo. Particulars: 5% solution, sprayed once daily, left chest. On the procedure: as §2
A 5% solution of tripotassium citrate prepared in the same manner as in Example 9 was sprayed once daily on small red papules that developed on the left chest part. […] From the small red papules, a body fluid was collected, and the pathogen was cultured, followed by gene analysis, thereby confirming Aspergillus tubingensis as the pathogen.

The next test relates to M. gypseum, IFM58916. Briefly: Drug-sensitivity test, microdilution method, CLSI guidelines. The test is classed as cell-based, Microsporum gypseum. On the procedure:
as §1, with “10.0. […]” for “10.0.”
as §3

The test system of test [7] is tinea in four nails of the left foot. Put plainly: Human case, Example 8: immersion treatment of toenail tinea. Particulars: entire foot immersed 1 hour daily in 3% test solution, after a half year. The format is in vivo. The protocol:
as §2
In the case in which tinea developed in all four nails except the fourth nail of the left foot, the entire foot was immersed for 1 hour daily in a 3% test solution prepared in the same manner as in Example 4. Over the course of the treatment, new nails grew from the base of the nails.

The test system of the next test is C. albicans, IFM5740. Briefly: Drug-sensitivity test, microdilution method, CLSI guidelines. The test is classed as cell-based, Candida albicans. The protocol: as §1, with “10.0. […]” for “10.0.”
as §3

Another test concerns Candida albicans. Conditions: Non-patent Literature 5; cited from earlier work.
For a further test, the system named is small red papules. Briefly: Human case, Example 13: external treatment of small red papules. The format is in vivo. Conditions: 3% (also printed 5%) test solution, sprayed once daily, left thigh. The protocol:
as §2
A 3% test solution of trisodium citrate was prepared in the same manner as in Example 4. This 5% test solution was sprayed once daily on small red papules that developed on the left thigh.

One may read the MIC as the lowest concentration found to suppress growth. A lower MIC goes with inhibition by little substance.

In brackets after ≈: the same amount, converted by molar mass.

With `C[C@@H]1[C@H](O)[C@@H](C)/C=C/C=C/C=C/C=C/C=C/C=C/C=C/[C@H](O[C@@H]2O[C@H](C)[C@@H](O)[C@H](N)[C@@H]2O)C[C@@H]2O[C@](O)(C[C@@H](O)C[C@@H](O)[C@H](O)CC[C@@H](O)C[C@@H](O)CC(=O)O[C@H]1C)C[C@H](O)[C@H]2C(=O)O` [amphotericin B, reference compound], in test [1], the MIC worked out at 2.0 mg/mL (≈ 2160 µM).
With `O=C(O)CC(O)(CC(=O)O)C(=O)O` [citric acid, reference compound], the antimicrobial activity result with Aspergillus oryzae and in the test with Candida krusei was “did not exhibit antimicrobial activity” each time.
For `O=C([O-])CC(O)(CC(=O)[O-])C(=O)[O-].[K+].[K+].[K+]` [tripotassium citrate], the “curative effect on thin hyperkeratotic tinea” value in [2] is “pink-color, healthy skin grew back”. For the same compound, the “curative effect on tinea unguium (Candida)” value in [3] is listed as “tinea unguium was cured”. For the same compound, the minimal inhibitory concentration (MIC) was 6.3 mg/mL with A. fumigatus, IFM4942; 1.6 mg/mL with E. floccosum, IFM53345; 12.5 mg/mL in the test on T. rubrum, IFM59814; 0.39 mg/mL in the test on C. neoformans, IFM5807; 3.1 mg/mL in test [1]; 10.0 mg/mL with M. furfur. In addition, the MIC came out at 12.5 mg/mL against M. gypseum, IFM58916 and 25 mg/mL against C. albicans, IFM5740. In addition, the “effect on small red papules on the body” value with human tinea was “complete cure”. In addition, the “curative effect on interdigital tinea” value in the test with interdigital tinea is “the skin symptom disappeared, and healthy skin grew back”. Besides, the “curative effect on tinea of fingernail and surrounding skin” value in test [4] was “a healthy nail and skin grew back”. Moreover, the “curative effect on vesicular tinea” value in the test with vesicular tinea was “this tinea was cured”. Further, the “corrected MIC value” in test [1] (corrected for the metal ions absorbed by spores (ICP analysis)) came to 0.054 mg/mL. For the same compound, in the test with tinea corporis, the “curative effect on tinea corporis” value was “tinea corporis disappeared, and healthy skin grew back”. For the same compound, the “curative effect on tinea unguium” value in the test with tinea unguium is “a healthy nail returned”. The “curative effect on hyperkeratotic tinea” value in test [5] was “hyperkeratotic tinea disappeared, and clean skin grew back”. Besides, the “effect on small red papules (Aspergillus)” value in test [6] was “immediately shrank, and after one week, pigmentation and cicatrization occurred”. Also, in [7], the “curative effect on nail tinea (foot)” value is on record as “tinea in all of the nails was fully cured”.
For the compound `O=C([O-])CC(O)(CC(=O)[O-])C(=O)[O-].[Na+].[Na+].[Na+]` [trisodium citrate], the figures for the antimicrobial activity result in the test with Aspergillus oryzae, in the test on Candida albicans and in the test with Candida krusei were “did not exhibit antimicrobial activity”, “exhibited antimicrobial activity” and “did not exhibit antimicrobial activity”, respectively. Further, the MIC in [1] is 6.3 mg/mL. The “effect on small red papules” value in the test with small red papules was “immediately shrank, and after 2 weeks, cicatrization and pigmentation occurred”.
